Data published in publication PMC6100724, “Proteome‐wide analysis of phospho‐regulated PDZ domain interactions” (Molecular Systems Biology, 2018).

Key:
Test in all cases: Phosphomimetic ProP-PD selection with NGS
DLG1 PDZ2 = target: T1, DLG1 PDZ2 (Homo sapiens, UniProt Q12959); type: binding; conditions: mean of selections 1-3, bait DLG1 PDZ2
T1 construct: human DLG1 PDZ2 aa 311–407 in a modified pRSET vector 40; made in house; host or cells: E. coli BL21 Gold (DE3)
Description: (§1) Phage selections were carried out for four rounds following a protocol by Huang and Sidhu (Huang & Sidhu, 2011) with minor modifications. Non‐specific binding phage was removed by pre‐selections against immobilized GST throughout the selection. The selections against the (pre‐)phosphorylated wild‐type library were performed in 50 mM HEPES (pH 7.4) and 150 mM NaCl (HBS) following the same procedure after pre‐phosphorylation of the library.
(§2) • Immobilize proteins (15 μg in 100 μl PBS) in a 96‐well MaxiSorp microtiter plate (NUNC) overnight at 4°C. • Start a 2YT culture of E. coli Omnimax supplemented with 100 μg/ml tetracycline to retain the F pilus epitope. • Block the wells with 200 μl 0.5% BSA in PBS for 2 h at 4°C. • Precipitate naïve phage library (10^11 cfu per selection) or amplified phage pool from the previous round of selection by adding one‐fifth the volume of PEG/NaCl. • Incubate on ice for 10 min, and pellet precipitated phage by centrifugation at 5,300 g for 15 min. Resuspend the phage pellet in 100 μl PBS per selection. • Add 100 μl of phage solution to the GST‐coated pre‐selection wells and incubate for 1 h. • Transfer the phage solution to the immobilized target proteins and allow it to bind for 2 h at 8°C. • Wash the plate four times with 200 μl cold wash buffer (PBS, 0.05% Tween‐20). • Elute bound phage by incubation with 100 μl log phase (0.6–0.8 OD600) E. coli Omnimax for 30 min at 37°C with shaking (200 RPM). • Add 10^12 cfu/ml M13K07 helper phage for hyperinfection of the bacteria and incubate as above for 45 min. • Transfer the bacterial culture to 10 ml 2YT supplemented with 50 μg/ml carbenicillin, 25 μg/ml kanamycin, and 300 μM IPTG and incubate overnight at 37°C while shaking. • Perform phage pool ELISA to monitor the progress of the selection as described previously (Huang & Sidhu, 2011).
(§3) The naïve library and the enriched phage pools of the third day of selection were amplified and barcoded by PCR and analyzed by NGS as described elsewhere (McLaughlin & Sidhu, 2013; Ivarsson et al, 2014). The reads were demultiplexed using the barcode sequences and filtered by discarding sequences with a Phred quality score under 30. Sequences were mapped to the original library using Bowtie (Langmead et al, 2009) with two mismatches between reads and library sequence. Nucleotide mutations leading to amino acid substitutions were subsequently removed. Cutoff values of NGS counts were assigned for each pool. PWMs were generated based on the remaining peptides (aligned on the C‐termini) using WebLogo (Crooks et al, 2004).
(§4) However, there was no significant correlation of the actual read counts (selection “strength”) and the initial representation in the library, reflecting the strong selection during phage display (wt+mimetic: P‐value: 0.49, ρ = −0.08, mimetic only: P‐value: 0.069, ρ = −0.2, wt only: P‐value: 0.12, ρ = 0.17). Consequently, the amount of reads for each binder after phage display is not a function of the amount of input reads in the naïve library and no modeling based on the input library frequencies to score the interactions is necessary. To allow for comparison between replicate selections, we used the fraction of NGS reads within a certain set, instead of the absolute number of NGS reads, as the absolute numbers differ between different NGS batches.

Scribble PDZ1 = target: T2, Scribble PDZ1 (Homo sapiens, UniProt Q14160); type: binding; conditions: bait Scribble PDZ1; mean of selections 1-3
T2 construct: human Scribble PDZ1 aa 719–829 in; made in house; host or cells: E. coli BL21 Gold (DE3)
Description: as §1, §2, §3, §4

DLG1 PDZ1 = type: binding, human; conditions: mean of selections 1-3, bait DLG1 PDZ1; for Mean fraction #NGS counts mimetic peptide / total count selection: phosphomimetic peptide; for Mean fraction #NGS counts wt peptide / total counts selection: wild type peptide
Description: as §1, §2, §3, §4

Scribble PDZ3 = type: binding, human; conditions: bait Scribble PDZ3
Description: as §1, §2, §3, §4

Scribble PDZ2 = type: binding, human; conditions: bait Scribble PDZ2
Description: as §1, §2, §3, §4

[1] = mean of selections 1 and 2 (selection 3 empty)
[2] = mean of selections 1-3, wild type peptide

T1 sequence (Q12959 311-407): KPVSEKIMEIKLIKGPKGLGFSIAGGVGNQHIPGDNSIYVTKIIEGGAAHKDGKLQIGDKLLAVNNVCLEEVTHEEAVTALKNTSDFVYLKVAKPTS
T2 sequence (Q14160 719-829): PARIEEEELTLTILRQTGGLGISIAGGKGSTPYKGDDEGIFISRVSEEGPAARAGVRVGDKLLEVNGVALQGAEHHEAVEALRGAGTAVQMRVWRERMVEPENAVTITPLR

Sequence: RSRSISEDV
- Mean fraction #NGS counts mimetic peptide / total count selection (DLG1 PDZ2): 3.877e-6
- Mean fraction #NGS counts mimetic peptide / total count selection (Scribble PDZ1): 0
- Mean fraction #NGS counts mimetic peptide / total count selection (DLG1 PDZ1): 0
- Mean fraction #NGS counts mimetic peptide / total count selection (Scribble PDZ3; mean over selections 1-3): 0

Sequence: RSRSISTDV
- Mean fraction #NGS counts wt peptide / total counts selection (DLG1 PDZ2): 0.02018
- Mean fraction #NGS counts wt peptide / total counts selection (Scribble PDZ1): 0.0001844
- Mean fraction #NGS counts wt peptide / total counts selection (Scribble PDZ2; [1]): 0.001899
- Mean fraction #NGS counts wt peptide / total counts selection (Scribble PDZ3; mean over selections 1-3): 0.0004544

Sequence: SARLWETSI
- Mean fraction #NGS counts wt peptide / total counts selection (Scribble PDZ1): 0.005032
- Mean fraction #NGS counts wt peptide / total counts selection (DLG1 PDZ1): 5.924e-6
- Mean fraction #NGS counts wt peptide / total counts selection (Scribble PDZ3; mean over selections 1-3): 0.08665

Sequence: SEGHTSTTL
- Mean fraction #NGS counts mimetic peptide / total count selection (DLG1 PDZ1): 5.924e-6

Sequence: SGEYLVTEV
- Mean fraction #NGS counts mimetic peptide / total count selection (Scribble PDZ2; mean over selections): 0.001329

Sequence: SGEYLVTSV
- Mean fraction #NGS counts mimetic peptide / total count selection (DLG1 PDZ2): 0
- Mean fraction #NGS counts mimetic peptide / total count selection (Scribble PDZ2; [1]): 0.001139

Sequence: SGSYLVTSV
- Mean fraction #NGS counts wt peptide / total counts selection (DLG1 PDZ2): 0.0001258
- Mean fraction #NGS counts wt peptide / total counts selection (DLG1 PDZ2; wild type peptide): 0.0001258
- Mean fraction #NGS counts wt peptide / total counts selection (Scribble PDZ1): 4.38e-5
- Mean fraction #NGS counts wt peptide / total counts selection (Scribble PDZ2; [1]): 0.0003798
- Mean fraction #NGS counts wt peptide / total counts selection (Scribble PDZ2; mean over selections): 0.0003798

Sequence: SQERMETNM
- Mean fraction #NGS counts mimetic peptide / total count selection (Scribble PDZ2; [1]): 0.007678
- Mean fraction #NGS counts mimetic peptide / total count selection (Scribble PDZ3; mean over selections 1-3): 0.0002907

Sequence: SQSRMSTNM
- Mean fraction #NGS counts wt peptide / total counts selection (Scribble PDZ2; [1]): 0
- Mean fraction #NGS counts wt peptide / total counts selection (Scribble PDZ3; mean over selections 1-3): 0

Sequence: SSGEQHTNV
- Mean fraction #NGS counts mimetic peptide / total count selection (DLG1 PDZ2): 5.744e-6
- Mean fraction #NGS counts mimetic peptide / total count selection (DLG1 PDZ1): 0

Sequence: SSGHTSTTL
- Mean fraction #NGS counts wt peptide / total counts selection (DLG1 PDZ1): 0

Sequence: SSGSQHTNV
- Mean fraction #NGS counts wt peptide / total counts selection (DLG1 PDZ2): 0.001066
- Mean fraction #NGS counts wt peptide / total counts selection (DLG1 PDZ1): 5.9593e-5

Sequence: TELTWISTL
- Mean fraction #NGS counts mimetic peptide / total count selection (Scribble PDZ2; [1]): 0.002089

Sequence: TRLEQHTDV
- Mean fraction #NGS counts mimetic peptide / total count selection (DLG1 PDZ2): 6.6203e-5
- Mean fraction #NGS counts mimetic peptide / total count selection (DLG1 PDZ1): 8.513e-6

Sequence: TRLSQHTDV
- Mean fraction #NGS counts wt peptide / total counts selection (DLG1 PDZ2): 0.0007437
- Mean fraction #NGS counts wt peptide / total counts selection (DLG1 PDZ1): 0.0004744

Sequence: TSLTWISTL
- Mean fraction #NGS counts wt peptide / total counts selection (Scribble PDZ2; [1]): 0

Sequence: VRKLPSTTL
- Mean fraction #NGS counts wt peptide / total counts selection (Scribble PDZ1): 6.957e-5
- Mean fraction #NGS counts wt peptide / total counts selection (Scribble PDZ3; [2]): 8.076e-6
- Mean fraction #NGS counts wt peptide / total counts selection (Scribble PDZ3; mean over selections 1-3): 8.076e-6

Sequence: VVHEPETEV
- Mean fraction #NGS counts mimetic peptide / total count selection (Scribble PDZ1): 4.939e-5
- Mean fraction #NGS counts mimetic peptide / total count selection (DLG1 PDZ1): 1.207e-5

Sequence: VVHTPETSV
- Mean fraction #NGS counts wt peptide / total counts selection (DLG1 PDZ2): 3.877e-6
- Mean fraction #NGS counts wt peptide / total counts selection (Scribble PDZ1): 7.859e-5
- Mean fraction #NGS counts wt peptide / total counts selection (Scribble PDZ2; mean over selections): 0
- Mean fraction #NGS counts wt peptide / total counts selection (Scribble PDZ3; [2]): 6.402e-5

Sequence: VVSERIESV
- Mean fraction #NGS counts mimetic peptide / total count selection (Scribble PDZ2; [1]): 0.0001899

Sequence: VVSERISEV
- Mean fraction #NGS counts mimetic peptide / total count selection (DLG1 PDZ2): 0.0004709
- Mean fraction #NGS counts mimetic peptide / total count selection (Scribble PDZ2; mean over selections): 0.0003798

Sequence: VVSERISSV
- Mean fraction #NGS counts wt peptide / total counts selection (DLG1 PDZ2): 0.0005322
- Mean fraction #NGS counts wt peptide / total counts selection (Scribble PDZ2; [1]): 0.003259
- Mean fraction #NGS counts wt peptide / total counts selection (Scribble PDZ2; mean over selections): 0.003259

Sequence: WVDSYYTEL
- Mean fraction #NGS counts mimetic peptide / total count selection (Scribble PDZ2; mean over selections): 0.002879
- Mean fraction #NGS counts mimetic peptide / total count selection (Scribble PDZ3; mean of selections 1-3, phosphomimetic peptide): 0.002589

Sequence: WVDSYYTSL
- Mean fraction #NGS counts wt peptide / total counts selection (Scribble PDZ2; mean over selections): 0
- Mean fraction #NGS counts wt peptide / total counts selection (Scribble PDZ3; [2]): 0.0003456

Sequence: YPAEPDSWV
- Mean fraction #NGS counts mimetic peptide / total count selection (DLG1 PDZ2): 0
- Mean fraction #NGS counts mimetic peptide / total count selection (Scribble PDZ2; [1]): 0

Sequence: YPASPDSWV
- Mean fraction #NGS counts wt peptide / total counts selection (DLG1 PDZ2): 0.0001112
- Mean fraction #NGS counts wt peptide / total counts selection (Scribble PDZ2; [1]): 0.02304

Sequence: YPGEPDEWV
- Mean fraction #NGS counts mimetic peptide / total count selection (DLG1 PDZ2): 0
- Mean fraction #NGS counts mimetic peptide / total count selection (DLG1 PDZ1): 0.01439

Sequence: YPGEPDSWV
- Mean fraction #NGS counts mimetic peptide / total count selection (Scribble PDZ2; [1]): 0

Sequence: YPGSPDEWV
- Mean fraction #NGS counts mimetic peptide / total count selection (Scribble PDZ2; [1]): 0
